As a reminder, the IC50 is the point on the concentration scale where inhibition reaches its midpoint.

Series [1] deals with PC9/G cells. In words: MTT cell growth inhibition assay in PC9/G cells. As to conditions: 72 h; for effect on cell viability when combined with Gef + Res treatment: 3-MA 5 mM or DEVD 10 nM with Gef 1 μM + Res 40 μM. The method, then: Cell viability was measured by MTT assay. Data are shown as means ± SD of three independent experiments. […] Then, cell viability, apoptosis, autophagy and senescence were detected as described in the Materials and methods. […] Res: Resveratrol; 3-MA: 3-methyladenine; DEVD: Ac-DEVD-CHO. The antiproliferative effects of the treatments were evaluated using the MTT assay. Cells were seeded at a density of 4 × 10^3 cells/well in 96-well plates. […] Then, MTT assays were performed as described previously. […] The different drug doses were combined using constant ratios of the IC50 values calculated from the previous cytotoxicity tests. […] The effects of different drug combinations were evaluated using the CompuSyn software (Biosoft, Ferguson, MO, USA) based on the median effect model of Chou and Talay[43].

Another series has as its system H1975 cells. The series is described as follows: MTT cell growth inhibition assay in H1975 cells. Format: cell-based. As to conditions: Homo sapiens, NCI-H1975. The method, then: (§1) The antiproliferative effects of the treatments were evaluated using the MTT assay. Cells were seeded at a density of 4 × 10^3 cells/well in 96-well plates. […] Then, MTT assays were performed as described previously.
(§2) are shown as means ± SD of three independent experiments.

The next series concerns H1299 cells. The series is described as follows: MTT cell growth inhibition assay in H1299 cells. In kind it is cell-based. As to conditions: Homo sapiens, NCI-H1299. The method, then: as §1, §2
The subject of a further series is HCC827/G cells. In words: MTT cell growth inhibition assay in HCC827/G cells. Format: cell-based. Conditions: Homo sapiens. The protocol: as §1, §2
A further series deals with HCC827 cells. The series is described as follows: MTT cell growth inhibition assay in HCC827 cells. Format: cell-based. Conditions: Homo sapiens. The method, then:
as §1, §2

For a further series, the system named is A549 cells. The series is described as follows: MTT cell growth inhibition assay in A549 cells. Format: cell-based. Conditions: Homo sapiens. The protocol:
as §1, §2

The test system of the next series is PC9 cells. The series is described as follows: MTT cell growth inhibition assay in PC9 cells. In kind it is cell-based. As to conditions: Homo sapiens, PC-9, single drug, 72 h. The method, then: Then, MTT assays were performed as described previously.
The subject of series [2] is PC9/G cells. In words: SA-β-gal senescence assay. Format: cell-based, human. Conditions: Gef 1 μM alone or combined with Res 40 μM, 72 h. The protocol: (§3) Figure 4 Res enhanced Gef-induced apoptosis, autophagy, G2/M phase cell cycle arrest, and senescence in PC9/G cells. […] (A) Morphological changes in PC9/G cells including nuclei condensation and fragmentation (arrow) were observed by DAPI staining under a fluorescence microscope. (B) Annexin V-FITC/PI staining assay of PC9/G cells was analysed by flow cytometry. (C) Autophagy was detected by MDC staining, and (D) fluorescence intensity was detected by flow cytometry. (E) Cells were stained with PI, and then the DNA content was analysed by flow cytometry. Sub-G1, G1, S and G2/M indicate different cell cycle phases. (F) Cells were stained for SA-β-Gal activity. The percentage of senescent cells in PC9/G cells was measured. Magnification: 200× .
Cell senescence was measured following the manufacturer’s protocol of the SA-β-gal assay kit. According to the protocol, cells were fixed with 2% paraformaldehyde for 15 min at room temperature and then incubated with fresh SA-β-gal stain solution in the dark at 37 °C overnight. SA-β-gal-positive cells were quantified by counting stained and unstained cells, and the result is presented as the ratio of SA-β-gal-positive cells over the total cells counted.

Series [3] deals with PC9/G cells. In words: Annexin V-FITC/PI apoptosis assay by flow cytometry. Format: cell-based, human. As to conditions: Gef 1 μM alone or combined with Res 40 μM, 72 h. The method, then:
as §3
For apoptosis analysis, cells were washed twice with 1× binding buffer then labelled with Annexin V and propidium iodide (PI) following the manufacturer’s instructions. The Apoptosis Analysis Kit was ordered from Tianjin Sungene Biotech (Tianjing, China). For cell cycle analysis, cells were washed twice with ice-cold PBS and fixed with 70% ethanol at −20 °C overnight. […] The analysis of the samples was performed by flow cytometry (Becton-Dickinson, San Jose, CA, USA), and the acquired data were analysed with the CellQuest software (BD Biosciences).
For orientation: In flow cytometry, cells or beads pass a laser one at a time.

For the compound `Cn1cnc(N)c2ncnc1-2` [3-MA, 3-methyladenine], the “effect on cell viability when combined with Gef + Res treatment” value in the series with PC9/G cells [1] (PC9/G cells) is reported as “significantly potentiated the reduction of cell viability”.
Take `Oc1ccc(/C=C/c2cc(O)cc(O)c2)cc1` [Res, Resveratrol]: the 50% inhibitory concentration (IC50) in the series with PC9/G cells [1] (Homo sapiens) amounted to 33.9 ± 1.6 µM; in the series on H1975 cells, 74.6 ± 2.03 µM; in the series with H1299 cells, 88.8 ± 1.62 µM; in the series with HCC827/G cells, 42.9 ± 3.54 µM; in the series on HCC827 cells it was 73.4 ± 4.32 µM; in the series with A549 cells it was 72.4 ± 2.76 µM. Moreover, in the series on PC9 cells, the IC50 stood at 82.5 ± 10 µM.
With `COc1cc2ncnc(Nc3ccc(F)c(Cl)c3)c2cc1OCCCN1CCOCC1` [Gef, Gefitinib], in the series on PC9/G cells [2], the “proportion of SA-β-gal-positive cells” value is on record as 11.4 ± 1.6%. In addition, in the series on PC9/G cells [3], the apoptosis rate was determined as 9.77 ± 2.96.
As to Ac-DEVD-CHO, in the series on PC9/G cells [1] (PC9/G cells, 3-MA 5 mM or DEVD 10 nM alone), the “toxic effect on cell viability, alone” value was “no toxic effects”. Moreover, the “effect on cell viability when combined with Gef + Res treatment” value in the series with PC9/G cells [1] (PC9/G cells) was “no effect”.

For the origin of these results see publication PMC4669414 (Scientific Reports, 2015).
